Laboratory results as given in patent US4728729A, “Cyanoimidazole nucleoside derivatives” (Sumitomo Pharmaceuticals Co., Ltd., priority 1984, dated 1988).

Key:
[1] = J. of Antibiotics, vol. 27 p. 775 (1974); Canada Pat. No. 1,078,736; cited from earlier work
[2] = system: anti-SRBC PFC response; experiment: Immunosuppressive activity: anti-SRBC PFC response in vivo (Cunningham method); set-up: species or system mouse; settings: for Suppression / PFC × 10^-3 / spleen: day 0 to 3; for Suppression: PFC measured day 4; for PFC × 10^-3 / spleen: measured day 4, AV. ± SD., n = 4, control 363 ± 51
Protocol: The immunosuppressive activity of the compound of the present invention was assayed in comparison with mizoribine which has been used in immunosuppressive therapy. After a sheep red blood cell preparation (SRBC) was injected in mice, the compounds were administered orally once a day on day 0 to 3 and the plaque forming cell (PFC) number was measured on day 4 by Cunningham method. [Cunningham A. J. et al. Immunol. 14, 599(1968)].

[3] = system: KU-2 (renal cell carcinoma); experiment: In vitro growth inhibition assay, KU-2; assay type: cell-based; settings: Homo sapiens; KU-2, monolayer culture, 72 to 120 hr
Protocol: (§1) In vitro growth inhibition activities were determined according to the method described in "Cancer Research", Vol. 43, p. 5851-5856 (1983).
(§2) In the case of monolayer culture (solid tumor cell lines), cells were cultured for 24 hr without the compound in order to allow cells to attach on the culture plate. Then the culture medium was changed to a fresh medium containing various concentrations of the compound. Cells were further cultured for 72 hr to 120 hr, and then removed from the culture plate by 0.125% trypsin and 0.05% EDTA solution.
(§3) Cell numbers were counted with a Coulter Counter and IC50 s were calculated.

[4] = system: SCaBER (bladder squamous carcinoma); experiment: In vitro growth inhibition assay, SCaBER; assay type: cell-based; settings: Homo sapiens, monolayer culture, 72 to 120 hr
Protocol: as §1, §2, §3

[5] = system: Hela (uterine cervix cancer); experiment: In vitro growth inhibition assay, Hela; assay type: cell-based; settings: Homo sapiens, monolayer culture, 72 to 120 hr
Protocol: as §1, §2, §3

[6] = system: QG-56 (lung squamous carcinoma); experiment: In vitro growth inhibition assay, QG-56; assay type: cell-based; settings: Homo sapiens; QG-56, monolayer culture, 72 to 120 hr
Protocol: as §1, §2, §3

[7] = system: A549 (lung cancer); experiment: In vitro growth inhibition assay, A549; assay type: cell-based; settings: Homo sapiens; A549, monolayer culture, 72 to 120 hr
Protocol: as §1, §2, §3

[8] = system: various types of human tumor cell lines; experiment: In vitro growth inhibition on various human tumor cell lines (summary); assay type: cell-based
Protocol: as §1
(§4) In the case of suspension culture (lymphoma and leukemia cell lines), cells were cultured with various concentrations of the compound for 72 hr.
as §2, §3

[9] = system: CCRF-HSB-2 (acute lymphoblastic leukemia); experiment: In vitro growth inhibition assay, CCRF-HSB-2; assay type: cell-based; settings: Homo sapiens; CCRF-HSB-2, suspension culture, 72 hr
Protocol: as §1, §4, §3

[10] = system: HL-60 (promyelocytic leukemia); experiment: In vitro growth inhibition assay, HL-60; assay type: cell-based; settings: Homo sapiens; HL-60, suspension culture, 72 hr
Protocol: as §1, §4, §3

[11] = system: QG-90 (lung small cell carcinoma); experiment: In vitro growth inhibition assay, QG-90; assay type: cell-based; settings: Homo sapiens; QG-90, monolayer culture, 72 to 120 hr
Protocol: as §1, §2, §3

[12] = system: solid Ehrlich carcinoma; experiment: Antitumor effect on solid Ehrlich carcinoma; assay type: in vivo, mouse (ICR/Jcl); settings: Days 1,5,9, tumors weighed day 15
Protocol: The antitumor activities of the compounds of the present invention were estimated according to the method described in "Cancer Research" vol. 43, p. 5851 (1983).
ICR/Jcl male mice, 5 weks old, […], […]. Each test group was composed of 6 mice. Three million cells of Ehrlich carcinoma were injected in the hind leg. The drug was administered orally at days 1, 5, and 9. After sacrificing the mice at day 15, tumors were removed and weighed. The tumor growth inhibitory ratio was calculated according to the following formula. [formula]

[13] = system: DU 145 (prostate cancer); experiment: In vitro growth inhibition assay, DU 145; assay type: cell-based; settings: Homo sapiens; DU 145, monolayer culture, 72 to 120 hr
Protocol: as §1, §2, §3

[14] = system: P3HR1 (Burkitt lymphoma); experiment: In vitro growth inhibition assay, P3HR1; assay type: cell-based; settings: Homo sapiens, P3HR-1; P3HR1, suspension culture, 72 hr
Protocol: as §1, §4, §3

SMILES: NC(=O)c1nc[nH]c1O [4-carbamoylimidazolium-5-olate]
- immunosuppressive and antitumor activities, in words [1]: immunosuppressive and antitumor activities

SMILES: NC(=O)c1ncn([C@@H]2O[C@H](CO)[C@@H](O)[C@H]2O)c1O [Mizoribine, 4-carbamoyl-1-β-D-ribofuranosylimidazolium-5-olate, reference compound]
- immunosuppressive and antitumor activities, in words [1]: immunosuppressive and antitumor activities
- Suppression ([2]; 5 mg/day p.o.): 0%
- PFC × 10^-3 / spleen ([2]; 5 mg/day p.o.): 496 ± 140 PFC × 10^-3 / spleen
- Suppression ([2]; 25 mg/day p.o.): 69%
- PFC × 10^-3 / spleen ([2]; 25 mg/day p.o.): 113 ± 53 PFC × 10^-3 / spleen
- Suppression ([2]; 50 mg/day p.o.): 89%
- PFC × 10^-3 / spleen ([2]; 50 mg/day p.o.): 39 ± 43 PFC × 10^-3 / spleen

SMILES: N#Cc1ncn([C@@H]2O[C@H](CO)[C@@H](O)[C@H]2O)c1O [4-cyano-1-β-D-ribofuranosylimidazolium-5-olate]
- IC50 [3]: 1 µM
- IC50 [4]: 5 µM
- IC50 [5]: 4.7 µM
- IC50 [6]: 2.8 µM
- IC50 [7]: 8.5 µM
- growth inhibitory activities on human tumor cell lines, in words [8]: potent growth inhibitory activities
- IC50 [9]: < 3 µM
- IC50 [10]: 0.87 µM
- Suppression ([2]; 5 mg/day p.o.): 0%
- PFC × 10^-3 / spleen ([2]; 5 mg/day p.o.): 362 ± 123 PFC × 10^-3 / spleen
- Suppression ([2]; 25 mg/day p.o.): 99%
- PFC × 10^-3 / spleen ([2]; 25 mg/day p.o.): 4 ± 1 PFC × 10^-3 / spleen
- Suppression ([2]; 50 mg/day p.o.): 100%
- PFC × 10^-3 / spleen ([2]; 50 mg/day p.o.): 0 PFC × 10^-3 / spleen
- immunosuppressive activity compared with mizoribine, in words ([2]; oral): more active than mizoribine
- immunosuppressive activity in oral administration, in words ([2]; oral): potent activity in oral administration
- IC50 [11]: 6.7 µM
- Inhibition ratio (tumor growth) ([12]; 10 mg/kg/day po): 40.1%
- Inhibition ratio (tumor growth) ([12]; 20 mg/kg/day po): 73.6%
- Inhibition ratio (tumor growth) ([12]; 40 mg/kg/day po): 99.8%
- Inhibition ratio (tumor growth) ([12]; 80 mg/kg/day po): 99.8%
- IC50 [13]: 4.4 µM
- IC50 [14]: 4.6 µM
